Laboratory results: US11207312B2, “Metallo-beta-lactamase inhibitors and methods of use thereof” (priority 2017, dated 2021)

What was measured:
NDM-1 = NDM-1 (Klebsiella pneumoniae, UniProt C7C422); experiment: biochemical; type: biochemical; details: CCF2-FA fluorescence assay, 2 hours at 25° C.
Method in brief: (§1)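 In pH 7 phosphate buffer (100 mM) with 10 μM ZnSO4 and 0.005% Tween-20, CCF2-FA hydrolysis (1.25 μM) by 1 pM NDM-1, 2 pM IMP-1 or 30 pM VIM-1 was run 2 h at 25° C with inhibitor from 20 to 0.00063 μM. Ex 405/em 460 nm signal fitted to a 4-parameter curve for IC50.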

IMP-1 = IMP-1 (Serratia marcescens, UniProt P52699); experiment: biochemical; details: CCF2-FA fluorescence assay, 2 hours at 25° C.; read-out: IMP1 IC50
Chain of IMP-1 (P52699 whole entry, looked up, species assumed): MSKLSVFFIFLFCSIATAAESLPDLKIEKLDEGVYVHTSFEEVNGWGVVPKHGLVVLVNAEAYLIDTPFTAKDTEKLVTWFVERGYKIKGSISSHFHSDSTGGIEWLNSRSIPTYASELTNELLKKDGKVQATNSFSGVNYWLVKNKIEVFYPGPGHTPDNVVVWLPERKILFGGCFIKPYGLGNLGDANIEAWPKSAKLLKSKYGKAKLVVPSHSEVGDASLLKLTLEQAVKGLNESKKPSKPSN
Method in brief: as §1

VIM-1 = VIM-1 (Pseudomonas aeruginosa (strain ATCC 15692 / DSM 22644 / CIP 104116 / JCM 14847 / LMG 12228 / 1C / PRS 101 / PAO1), UniProt A0A0F7KYQ8); experiment: biochemical; details: CCF2-FA fluorescence assay, 2 hours at 25° C.; read-out: VIM1 IC50
Method in brief: as §1

VIM-2 = VIM-2 (Escherichia coli, UniProt Q5U7L7); experiment: biochemical; details: CCF2-FA fluorescence assay; read-out: VIM2 IC50
[1] = tested on: Escherichia coli expressing NDM-1 (CLB30016); type: cell-based; details: with imipenem 1 μg/ml; 95% inhibition of bacterial growth
Method in brief: (§2)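 Colonies from sheep-blood agar plates are resuspended in saline, then diluted 1:100 in 1.1× CAMHB. Bacteria receive imipenem (1 μg/ml) and test compound, then incubate 22–24 h at 35 °C. Potentiation is reported as MITC95 from absorbance.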

[2] = tested on: Klebsiella pneumoniae expressing VIM-1 (IHMA599644); type: cell-based; details: with imipenem 1 μg/ml; 95% inhibition of bacterial growth
Method in brief: as §2

[3] = tested on: Serratia marcescens expressing IMP-1 (CL5741); type: cell-based; details: with imipenem 1 μg/ml; 95% inhibition of bacterial growth
Method in brief: as §2

[4] = tested on: P. aeruginosa MB9798 (efflux+, IMP-1 plasmid); details: for MB9798 MITC95 P. aeruginosa uM Efflux WT: efflux + (MB9798) strain, imipenem at 2 μg/mL, in the presence of a class A, C, D serine β-lactamase inhibitor closely related to relebactam; for Efflux ratio: fold difference between efflux+ (MB9798) and efflux− (MB9799) strains
Method in brief: (§3)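 PAO1-derived isogenic pair (oprD+, inducible AmpC), efflux+ MB5919 or efflux− MB5890 parent, carrying an electroporated IMP-1 plasmid from a clinical isolate. Microbroth MIC with fixed imipenem and/or ceftazidime (usually CLSI breakpoint) plus fixed class A/C inhibitor; MBL inhibitor serially titrated, concentration restoring susceptibility recorded.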

[5] = tested on: P. aeruginosa MB9799 (efflux-, IMP-1 plasmid); type: cell-based, Pseudomonas aeruginosa; details: efflux − (MB9799) strain; imipenem at 2 μg/mL; in the presence of a class A, C, D serine β-lactamase inhibitor closely related to relebactam
Method in brief: as §3

Chain of NDM-1 (C7C422 whole entry, looked up, species assumed): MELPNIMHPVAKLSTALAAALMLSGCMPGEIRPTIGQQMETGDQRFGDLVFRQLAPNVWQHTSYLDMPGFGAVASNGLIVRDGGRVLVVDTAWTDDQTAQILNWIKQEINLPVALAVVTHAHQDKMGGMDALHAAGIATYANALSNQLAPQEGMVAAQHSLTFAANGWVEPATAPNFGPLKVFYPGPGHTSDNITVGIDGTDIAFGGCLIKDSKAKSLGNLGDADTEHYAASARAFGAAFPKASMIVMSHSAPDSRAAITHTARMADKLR

CC1CC(CN)CCN1c1ccc(S(=O)(=O)NC[C@H](O)CN)c(S(N)(=O)=O)c1-c1nn[nH]n1 (stereo partly drawn) [Example 4, N1-((R)-3-amino-2-hydroxypropyl)-4-(4-(aminomethyl)-2-methylpiperidin-1-yl)-3-(2H-tetrazol-5-yl)benzene-1,2-disulfonamide]
IC50 (NDM-1): 2.17 nM | IC50 (IMP-1): 9.4 nM | IC50 (VIM-1): 0.18 nM | IC50 (VIM-2): 2.4 nM | CLB30016 E. coli MITC95 NDM [1]: 3.13 µM | IHMA599644 K. pneumoniae MITC95 VIM [2]: 3.13 µM | CL5741 S. marcescens MITC95 IMP [3]: 1.56 µM | MB9798 MITC95 P. aeruginosa uM Efflux WT [4]: 1.56 µM | Efflux ratio [4]: 2.00 | MB9799 MITC95 P. aeruginosa uM Efflux Mutant [5]: 0.78 µM

NS(=O)(=O)c1c(S(=O)(=O)N[C@@H]2CCNC2)ccc(N2CC(N3CCCCC3)C2)c1-c1nnn[nH]1 [Example 112, 4-(3-piperidin-1-ylazetidin-1-yl)-N1-[(3R)-pyrrolidin-3-yl]-3-(1H-tetrazol-5-yl)benzene-1,2-disulfonamide]
IC50 (NDM-1): 8.98 nM | IC50 (IMP-1): 15 nM | IC50 (VIM-1): 2.9 nM | IC50 (VIM-2): 16.6 nM | CLB30016 E. coli MITC95 NDM [1]: 0.78 µM | IHMA599644 K. pneumoniae MITC95 VIM [2]: 3.13 µM | CL5741 S. marcescens MITC95 IMP [3]: 1.56 µM | MB9798 MITC95 P. aeruginosa uM Efflux WT [4]: 50.00 µM | Efflux ratio [4]: 31.99 | MB9799 MITC95 P. aeruginosa uM Efflux Mutant [5]: 1.56 µM

NS(=O)(=O)c1c(S(=O)(=O)N[C@@H]2CCNC2)ccc(N2CCC(O)CC2)c1-c1nnn[nH]1 [Example 63, 4-(4-hydroxypiperidin-1-yl)-N1-[(3R)-pyrrolidin-3-yl]-3-(1H-tetrazol-5-yl)benzene-1,2-disulfonamide]
IC50 (NDM-1): 0.31 nM | IC50 (IMP-1): 0.47 nM | IC50 (VIM-1): 0.16 nM | IC50 (VIM-2): 0.66 nM | CLB30016 E. coli MITC95 NDM [1]: 3.13 µM | IHMA599644 K. pneumoniae MITC95 VIM [2]: 6.25 µM | CL5741 S. marcescens MITC95 IMP [3]: 3.13 µM | MB9798 MITC95 P. aeruginosa uM Efflux WT [4]: 1.56 µM | Efflux ratio [4]: 1.00 | MB9799 MITC95 P. aeruginosa uM Efflux Mutant [5]: 1.56 µM

N[C@H]1CCCN(c2ccc(S(=O)(=O)N[C@@H]3CCNC3)c(S(N)(=O)=O)c2-c2nn[nH]n2)C1=O [Example 156, 4-((S)-3-amino-2-oxopiperidin-1-yl)-N1-((R)-pyrrolidin-3-yl)-3-(2H-tetrazol-5-yl)benzene-1,2-disulfonamide]
IC50 (NDM-1): 4.64 nM | IC50 (IMP-1): 67.7 nM | IC50 (VIM-1): 2.14 nM | IC50 (VIM-2): 7.16 nM | CLB30016 E. coli MITC95 NDM [1]: 0.39 µM | IHMA599644 K. pneumoniae MITC95 VIM [2]: 1.56 µM | CL5741 S. marcescens MITC95 IMP [3]: 1.56 µM | MB9798 MITC95 P. aeruginosa uM Efflux WT [4]: 12.50 µM | Efflux ratio [4]: 8.00 | MB9799 MITC95 P. aeruginosa uM Efflux Mutant [5]: 1.56 µM

NCCNS(=O)(=O)C1CCN(c2ccc(S(=O)(=O)NC[C@H](O)CN)c(S(N)(=O)=O)c2-c2nn[nH]n2)CC1 [Example 131, (R)-N1-(3-amino-2-hydroxypropyl)-4-(4-(N-(2-aminoethyl)sulfamoyl)piperidin-1-yl)-3-(2H-tetrazol-5-yl)benzene-1,2-disulfonamide]
IC50 (NDM-1): 0.79 nM | IC50 (IMP-1): 0.87 nM | IC50 (VIM-1): 0.11 nM | IC50 (VIM-2): 1.05 nM | CLB30016 E. coli MITC95 NDM [1]: 0.39 µM | IHMA599644 K. pneumoniae MITC95 VIM [2]: 1.56 µM | CL5741 S. marcescens MITC95 IMP [3]: 0.78 µM | MB9798 MITC95 P. aeruginosa uM Efflux WT [4]: 0.78 µM | Efflux ratio [4]: 1.00 | MB9799 MITC95 P. aeruginosa uM Efflux Mutant [5]: 0.78 µM

NS(=O)(=O)c1c(S(=O)(=O)N[C@@H]2CCNC2)ccc(N2CCN(C(=O)CO)CC2)c1-c1nnn[nH]1 [Example 109, 4-[4-(hydroxyacetyl)piperazin-1-yl]-N1-[(3R)-pyrrolidin-3-yl]-3-(1H-tetrazol-5-yl)benzene-1,2-disulfonamide]
IC50 (NDM-1): 0.51 nM | IC50 (IMP-1): 2.21 nM | IC50 (VIM-1): 0.43 nM | IC50 (VIM-2): 1.9 nM | CLB30016 E. coli MITC95 NDM [1]: 3.13 µM | IHMA599644 K. pneumoniae MITC95 VIM [2]: 6.25 µM | CL5741 S. marcescens MITC95 IMP [3]: 3.13 µM | MB9798 MITC95 P. aeruginosa uM Efflux WT [4]: 3.13 µM | Efflux ratio [4]: 1.00 | MB9799 MITC95 P. aeruginosa uM Efflux Mutant [5]: 3.13 µM

NCC1CCN(c2ccc(S(=O)(=O)N[C@@H](CN)CO)c(S(N)(=O)=O)c2-c2nn[nH]n2)CC1 [Example 189, (S)-N1-(1-amino-3-hydroxypropan-2-yl)-4-(4-(aminomethyl)piperidin-1-yl)-3-(2H-tetrazol-5-yl)benzene-1,2-disulfonamide]
IC50 (NDM-1): 0.3 nM | IC50 (IMP-1): 0.77 nM | IC50 (VIM-1): 0.06 nM | IC50 (VIM-2): 2.31 nM | CLB30016 E. coli MITC95 NDM [1]: 0.39 µM | IHMA599644 K. pneumoniae MITC95 VIM [2]: 0.78 µM | CL5741 S. marcescens MITC95 IMP [3]: 0.78 µM | MB9798 MITC95 P. aeruginosa uM Efflux WT [4]: 0.78 µM | Efflux ratio [4]: 2.00 | MB9799 MITC95 P. aeruginosa uM Efflux Mutant [5]: 0.39 µM

NS(=O)(=O)c1c(S(=O)(=O)N[C@@H]2CCNC2)ccc(N2CCNC2=S)c1-c1nn[nH]n1 [Example 191, (R)—N1-(pyrrolidin-3-yl)-3-(2H-tetrazol-5-yl)-4-(2-thioxoimidazolidin-1-yl)benzene-1,2-disulfonamide]
IC50 (NDM-1): 0.94 nM | IC50 (IMP-1): 25.2 nM | IC50 (VIM-1): 0.21 nM | IC50 (VIM-2): 1.15 nM | CLB30016 E. coli MITC95 NDM [1]: 0.78 µM | IHMA599644 K. pneumoniae MITC95 VIM [2]: 3.13 µM | CL5741 S. marcescens MITC95 IMP [3]: 1.56 µM | MB9798 MITC95 P. aeruginosa uM Efflux WT [4]: 6.25 µM | Efflux ratio [4]: 4.00 | MB9799 MITC95 P. aeruginosa uM Efflux Mutant [5]: 1.56 µM

CS(=O)(=O)CCN1CCN(c2ccc(S(=O)(=O)NC[C@H](O)CN)c(S(N)(=O)=O)c2-c2nn[nH]n2)CC1 [Example 117, (R)—N1-(3-amino-2-hydroxypropyl)-4-(4-(2-(methylsulfonyl)ethyl)piperazin-1-yl)-3-(2H-tetrazol-5-yl)benzene-1,2-disulfonamide]
IC50 (NDM-1): 0.94 nM | IC50 (IMP-1): 0.55 nM | IC50 (VIM-1): 2.58 nM | IC50 (VIM-2): 2.28 nM | CLB30016 E. coli MITC95 NDM [1]: 3.13 µM | IHMA599644 K. pneumoniae MITC95 VIM [2]: 6.25 µM | CL5741 S. marcescens MITC95 IMP [3]: 0.78 µM | MB9798 MITC95 P. aeruginosa uM Efflux WT [4]: 12.50 µM | Efflux ratio [4]: 4.00 | MB9799 MITC95 P. aeruginosa uM Efflux Mutant [5]: 3.13 µM

NC[C@@H](O)CNS(=O)(=O)c1ccc(N2CCNC(CO)C2)c(-c2nn[nH]n2)c1S(N)(=O)=O (stereo partly drawn) [Example 122, N1-((R)-3-amino-2-hydroxypropyl)-4-(3-(hydroxymethyl)piperazin-1-yl)-3-(2H-tetrazol-5-yl)benzene-1,2-disulfonamide]
IC50 (NDM-1): 14.3 nM | IC50 (IMP-1): 24.4 nM | IC50 (VIM-1): 3.34 nM | IC50 (VIM-2): 6.86 nM | CLB30016 E. coli MITC95 NDM [1]: 0.20 µM | IHMA599644 K. pneumoniae MITC95 VIM [2]: 0.78 µM | CL5741 S. marcescens MITC95 IMP [3]: 0.39 µM | MB9798 MITC95 P. aeruginosa uM Efflux WT [4]: 1.56 µM | Efflux ratio [4]: 2.00 | MB9799 MITC95 P. aeruginosa uM Efflux Mutant [5]: 0.78 µM

NCCC1CCN(c2ccc(S(=O)(=O)NC[C@H](O)CN)c(S(N)(=O)=O)c2-c2nn[nH]n2)CC1 [Example 24, (R)-N^1-(3-amino-2-hydroxypropyl)-4-(4-(2-aminoethyl)piperidin-1-yl)-3-(2H-tetrazol-5-yl)benzene-1,2-disulfonamide]
IC50 (NDM-1): 5.09 nM | IC50 (IMP-1): 5.79 nM | IC50 (VIM-1): 0.45 nM | IC50 (VIM-2): 5.6 nM | CLB30016 E. coli MITC95 NDM [1]: 1.56 µM | IHMA599644 K. pneumoniae MITC95 VIM [2]: 6.25 µM | CL5741 S. marcescens MITC95 IMP [3]: 3.13 µM | MB9798 MITC95 P. aeruginosa uM Efflux WT [4]: 1.56 µM | Efflux ratio [4]: 1.00 | MB9799 MITC95 P. aeruginosa uM Efflux Mutant [5]: 1.56 µM
